Reference: patent US20200397675A1, “METHOD FOR IMPROVING SOLUBILITY OF SPARINGLY WATER-SOLUBLE COMPONENT” (ADEKA CORPORATION, priority 2018, published 2020)

Experiment: Investigation of solubility of sparingly water-soluble components in Solutions 1 to 9 (0.1 g additions until turbidity)
Conditions: 25° C.
Protocol: In addition, confirmation that turbidity or precipitation had not occurred was carried out by adding 0.1 g of the sparingly water-soluble component at a time, stirring for 10 minutes at 25° C. and then leaving to stand. […] Moreover, further tests were not carried out in cases where the solubility exceeded 5 [g/100 g solution].

solubility (Comparative Example 1, Solution 1 (water 100 g)): 0.2 g/100 g solution
solubility (Comparative Example 2, Solution 4 (water 90 g, ethanol 10 g)): 0.3 g/100 g solution
solubility (Comparative Example 3, Solution 5 (water 90 g, propylene glycol 10 g)): 0.3 g/100 g solution
solubility (Comparative Example 4, Solution 6 (water 90 g, dipropylene glycol 10 g)): 0.3 g/100 g solution
solubility (Comparative Example 5, Solution 7 (water 90 g, butylene glycol 10 g)): 0.2 g/100 g solution
solubility (Comparative Example 6, Solution 8 (water 90 g, glycerin 10 g)): 0.2 g/100 g solution
solubility (Example 1, Solution 2 (water 90 g, Compound (1)-1 10 g)): 1.5 g/100 g solution
solubility (Example 2, Solution 3 (water 90 g, Compound (1)-2 10 g)): 2.3 g/100 g solution
solubility (Example 3, Solution 9 (water 80 g, Compound (1)-2 10 g, butylene glycol 10 g)): >5 g/100 g solution
Structure (SMILES): CCCCC(CC)COCC(O)CO (stereo not drawn) [2-ethylhexyl glyceryl ether]
